Measured values reported in US20030224420A1, “Method for isolating and measuring proliferation of long-term label retaining cells and stem cells” (priority 2002, published 2003).
“Also recorded” adds a separate entry of the source.

Tests used:
[1] = Body weight and toxicity during BrdU administration (p.o. drinking water vs i.p.); assay type: in vivo
[2] = system: colon epithelial cells (CECs); experiment: Flow cytometric (FACS) analysis of BrdU labeled colon epithelial cell nuclei; assay type: in vivo, Fisher 344 rats; details: for BrdU+ cells in proliferative fraction of the crypt: FACS
Method: For BrdU labeling, rats received BrdU in drinking water at 1 mg/ml. Glucose (1 g/100 ml) was added to the water to mask the taste of BrdU. BrdU was added to the water, then the bottle was shaken. Next, glucose was added and the bottle was vigorously shaken to dissolve BrdU completely. It took approximately 1-2 min for BrdU to dissolve completely. It was important to prepare BrdU drinking water freshly everyday during the feeding period.
Colon was excised fresh at necropsy. Feces were removed with 0.015M NaCl solution with 0.001M dithiothreitol (DTT) and the colon was placed in cold, 1.6% Joklik's modified medium (JMMEM, Gibco Invitrogen, Grand Island, N.Y.) for 120 minutes. CECs from different proliferative fractions of the crypt were separated sequentially using the nonenzymatic, mechanical dissociation method described elsewhere. CEC from different crypt fractions (basal proliferative fraction and top mature fraction) were collected by incubating the colon sac filled with PBS buffers containing chelating agents. The tissue was shaken in a 37° C. water bath for 20 minutes, then 15 minutes and 30 minutes for collecting CECs from top, middle and the basal fractions, respectively. The middle fraction (transitional fraction) was discarded. The collected CECs were then separated from intraepithelial lymphocytes and other contaminants by applying to a discontinuous Percoll (Amersham Biosciences, Uppsala, Sweden) gradient centrifugation, with 45% Percoll overlaid on 75% Percoll. CEC from the proliferative fraction (the base of the crypts) were collected and used for FACS and GC/MS analysis since LRCs are known to be located at this region. The CECs from the mature (top) fractions from the rats that were given ^2H2O for 2-3 weeks were used as fully turned over CECs to represent the maximal ^2H labeling in DNA. A part of the distal and proximal colon was used for immunohistochemistry.
The staining protocol was as described elsewhere, and was modified for CECs. The CECs were separated from colon (as described above) and filtered through a Falcon tube 2235. The cells were then fixed with ice cold 95% ethanol while vortexing, centrifugated at 800 g for 3 minutes and washed in cold PBS (without Ca^++ and Mg^++) once. […] Two million cells were washed of ethanol in 150 ul of PBS, incubated in 1% NP 40 (Sigma) solution in the refrigerator for 30 minutes, centrifugated at 10,000 g, and the pellet was collected and washed in PBS. Two million CEC nuclei were added to each well in 96 well plates (round bottom), then 150 ul of 1% paraformaldehyde with 0.01% Tween 20 in PBS was added for additional fixation and permeabilization. The cells were kept at room temperature for 30 minutes then at 4° C. for 15 minutes, prior to centrifugation at 800 g for 3 minutes and washing in cold PBS once. Next, 150 μl of DNase I (50 kunits/ml) was added at room temperature for 15 minutes to allow denaturation of nuclear DNA. […] For negative controls, an equal concentration of mouse IgG1 FITC isotype control antibodies (Becton Dickinson, Cat 349041) were used to correct for background fluorescence. […]
At the end of each BrdU labeling period (0 week delabed), we analyzed the percent of BrdU positive cells from the proliferative fraction of the crypt (where LRCs have previously been located). This maximal BrdU labeled sample was analyzed to confirm the efficacy of BrdU administration. […]

CEC = CEC proliferation rates of BrdU treated vs control rats (preliminary study); assay type: in vivo; details: data not shown
Description: There have been reports on the inhibitory effects of BrdU on cell proliferation and differentiation in vitro and in vivo at various concentrations and in various cell types. Since BrdU toxicity is strain and cell type specific, we cannot completely assess possible toxic effects from BrdU on the proliferation of LRCs.

[3] = Body water ^2H2O enrichment by GC/MS during ^2H2O administration; assay type: in vivo, Fisher 344 rats; details: for Body Water ^2H2O Enrichment: 8% ^2H2O drinking water
Method: Rats were primed with 99.9% ^2H2O i.p. at the start of the ^2H2O labeling period. The volume injected was 4% of the estimated body water volume. Then they were maintained on 8% ^2H2O enriched drinking water ad libitum for up to 8 weeks (19).
Body water enrichments were measured by a gas chromatographic/mass spectrometer (GC/MS) technique that we have described previously.
Body water ^2H2O enrichments were measured from plasma obtained from rats sacrificed at each time point. Achievement of plateau ^2H enrichments in body water during long-term ^2H2O administration is desirable because it signifies a stable DNA synthesis precursor enrichment for labeling of DNA. Body water enrichment from rats that were on ^2H2O for 2-8 weeks reached expected values and remained at those plateau levels (3.9-4.3%) throughout the study (FIG. 3).

| SMILES | Toxicity or weight loss ([1]; BrdU 1 mg/ml in drinking water, long-term) | Toxicity (body weight) ([1]; BrdU i.p., repeated injections once a day for 8 days) | BrdU+ cells in proliferative fraction, mean±SD over labeling periods ([2]; 0 week delabeled, mean of 2, 4 and 8 weeks BrdU p.o.) [%] | BrdU positive cells after 4 and 8 weeks of BrdU administration ([2]; 4 and 8 weeks BrdU p.o.) | BrdU+ cells in proliferative fraction of the crypt ([2]; after 4 weeks BrdU p.o., 0 week delabeled) [%] | BrdU+ cells in proliferative fraction of the crypt ([2]; after 8 weeks BrdU p.o., 0 week delabeled) [%] | BrdU incorporation / fluorescence of CEC, i.p. vs p.o. ([2]; repeated i.p. injection once a day for 8 days compared with p.o. drinking water) | CEC proliferation rates vs control rats (CEC) | Body Water ^2H2O Enrichment ([3]; Week 1 of ^2H2O administration) | Body Water ^2H2O Enrichment ([3]; Week 3 of ^2H2O administration) | Body Water ^2H2O Enrichment ([3]; Week 4 of ^2H2O administration) | Delabeling time for ^2H2O to be almost completely washed out of the body water pool ([3]; after stopping ^2H2O intake, found previously in applicant's lab) | Body water enrichment, plateau levels ([3]; rats on ^2H2O for 2-8 weeks, measured from plasma) | Body water enrichment maintained throughout the study ([3]; throughout the study) |
| --- | --- | --- | --- | --- | --- | --- | --- | --- | --- | --- | --- | --- | --- | --- |
| O=c1[nH]c(=O)n([C@H]2C[C@H](O)[C@@H](CO)O2)cc1Br [BrdU, bromodeoxyuridine] | did not cause any detectable toxicity or weight loss | caused toxicities; also recorded: caused weight loss; also recorded: toxicities were observed | 77±12 | 65-77% | 65 | 77 | more BrdU incorporation and thus higher fluorescence | same CEC proliferation rates as the control rats |  |  |  |  |  |  |
| [2H]O[2H] [^2H2O, deuterated water] |  |  |  |  |  |  |  |  | 4.29 | 3.93 | 4.30 | less than 1 week | 3.9-4.3% | 4.2±0.2 % of total body water |
